# Assay results taken from US10370352B2, “Cyclobutyl-imidazolidinone compounds” (Eli Lilly and Company, priority 2017, dated 2019).
# Columns and labels:
# [1] = molecular target: recombinant human ASK1 (hASK1) catalytic domain (Homo sapiens (Human), UniProt Q99683); test: ASK1 enzymatic assay (ADP-Glo Kinase Assay); format: biochemical; details: for IC50: hASK1 0.25 nM, MKK6 300 nM, ATP 100 μM, mean ± standard deviation; for Efficacy: hASK1 enzymatic assay, standard benzamide ASK1 inhibitor = 100% inhibition, DMSO = 0%
# Chain of recombinant human ASK1 (hASK1) catalytic domain (Q99683 680-938): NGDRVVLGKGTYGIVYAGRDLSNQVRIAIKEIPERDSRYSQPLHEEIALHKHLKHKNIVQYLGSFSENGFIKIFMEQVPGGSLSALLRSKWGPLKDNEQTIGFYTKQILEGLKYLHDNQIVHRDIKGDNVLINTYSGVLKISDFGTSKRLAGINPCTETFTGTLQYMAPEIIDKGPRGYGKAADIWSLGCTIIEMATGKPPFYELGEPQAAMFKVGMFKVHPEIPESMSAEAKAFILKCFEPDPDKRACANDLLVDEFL
# Text: The purpose of this assay is to determine the effect of ASK1 inhibitors on the production of ADP by ASK1. The recombinant human ASK1 (hASK1) catalytic domain tagged with Glutathione S-transferase is used, and histidine-tagged full-length human MAP kinase kinase 6 (MKK6) and ATP are the substrate and cofactor, respectively.
# The assay is done using an ADP-Glo™ Kinase Assay Kit (Promega, Catalog #V9102) according to the manufacturer's protocol with the following modifications. Briefly, hASK1 (0.25 nM) and MKK6 (300 nM) in a buffer (10 mM MOPS pH 7.0; 10 mM Mg-Acetate; 1 mM DTT; 0.025% NP-40; 0.05% BSA; 1.5% glycerol) are incubated with ASK1 inhibitors at varying concentrations ranging from 10.00 μM to 0.17 nM for 15 minutes, followed by incubation with ATP (100 μM) for 30 minutes at room temperature. ADP-Glo™ Reagent is added to terminate the kinase reaction and deplete the remaining ATP. The Kinase Detection Reagent is then added to convert ADP to ATP. The newly synthesized ATP is measured using a luciferase/luciferin reaction, and the luminescence determined by Envision (PerkinElmer). The luminescence intensities are analyzed by GeneData, and fit to a 4 parameter dose response-inhibitor logistics curve to determine IC50 values, using the effects of 5-(4-cyclopropyl-1H-imidazol-1-yl)-2-fluoro-4-methyl-N-{6-[4-(propan-2-yl)-4H-1,2,4-triazol-3-yl]pyridin-2-yl}benzamide as a standard and DMSO vehicle for 100% and 0% inhibition, respectively.
# human ASK1 = human ASK1 (Homo sapiens (Human), UniProt Q99683); test: ASK1 autophosphorylation (Thr838) assay in HEK293 cells overexpressing human ASK1; format: cell-based; details: for IC50: H2O2-stimulated (1 mM, 10 min) ASK1 autophosphorylation at Thr838, HEK293 cells, HTRF, mean ± standard deviation, read-out: HEK pASK1 IC50; for Efficacy: HEK pASK1 assay, standard benzamide ASK1 inhibitor = 100% inhibition, DMSO = 0%
# Chain of human ASK1 (Q99683 whole entry): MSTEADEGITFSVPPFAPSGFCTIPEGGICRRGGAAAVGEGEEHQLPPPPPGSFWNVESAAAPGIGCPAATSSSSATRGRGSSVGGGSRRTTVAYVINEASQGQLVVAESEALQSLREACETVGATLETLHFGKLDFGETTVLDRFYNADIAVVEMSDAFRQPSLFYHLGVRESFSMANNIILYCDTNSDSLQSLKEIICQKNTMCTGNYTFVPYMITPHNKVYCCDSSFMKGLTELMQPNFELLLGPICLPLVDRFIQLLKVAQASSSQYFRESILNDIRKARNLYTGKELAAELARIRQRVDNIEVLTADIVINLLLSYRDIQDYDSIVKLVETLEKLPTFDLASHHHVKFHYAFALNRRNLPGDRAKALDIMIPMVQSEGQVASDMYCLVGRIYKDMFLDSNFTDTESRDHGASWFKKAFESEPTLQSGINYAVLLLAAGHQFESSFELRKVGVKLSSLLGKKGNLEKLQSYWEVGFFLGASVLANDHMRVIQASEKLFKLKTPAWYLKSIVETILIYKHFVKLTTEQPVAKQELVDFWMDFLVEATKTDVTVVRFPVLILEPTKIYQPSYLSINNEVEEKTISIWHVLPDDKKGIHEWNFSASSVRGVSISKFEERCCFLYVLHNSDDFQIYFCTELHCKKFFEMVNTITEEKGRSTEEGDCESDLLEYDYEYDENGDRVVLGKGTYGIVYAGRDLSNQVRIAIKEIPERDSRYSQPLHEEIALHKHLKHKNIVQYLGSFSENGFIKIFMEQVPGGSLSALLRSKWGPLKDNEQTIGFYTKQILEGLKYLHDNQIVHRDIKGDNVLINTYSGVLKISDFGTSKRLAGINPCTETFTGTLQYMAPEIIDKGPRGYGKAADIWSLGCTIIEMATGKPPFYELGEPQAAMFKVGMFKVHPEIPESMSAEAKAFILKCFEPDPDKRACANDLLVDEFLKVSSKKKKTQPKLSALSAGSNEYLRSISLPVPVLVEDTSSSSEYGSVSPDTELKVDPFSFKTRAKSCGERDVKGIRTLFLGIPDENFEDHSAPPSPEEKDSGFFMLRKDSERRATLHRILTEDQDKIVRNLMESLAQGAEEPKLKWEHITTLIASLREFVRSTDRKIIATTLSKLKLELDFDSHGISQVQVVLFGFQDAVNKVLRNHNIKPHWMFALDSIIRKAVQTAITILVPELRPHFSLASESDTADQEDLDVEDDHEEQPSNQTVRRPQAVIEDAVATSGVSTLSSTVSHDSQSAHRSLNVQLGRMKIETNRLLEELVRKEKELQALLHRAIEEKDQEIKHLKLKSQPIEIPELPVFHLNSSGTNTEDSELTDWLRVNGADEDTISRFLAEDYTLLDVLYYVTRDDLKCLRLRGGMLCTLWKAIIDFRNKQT
Compound,IC50 [1] [nM],Efficacy [1] [%],IC50 (human ASK1) [nM],Efficacy (human ASK1) [%]
"CC(C)n1cnnc1-c1cccc(N2CCN(C3CC(n4cnc(C(F)(F)F)c4)C3)C2=O)n1 (stereo not drawn) [Example 3, 1-(6-(4-Isopropyl-4H-1,2,4-triazol-3-yl)pyridin-2-yl)-3-(3-(4-(trifluoromethyl)-1H-imidazol-1-yl)cyclobutyl)imidazolidin-2-one]",2.8 ± 0.97,100,126,98.5
"CC(C)n1cc(C2CC(N3CCN(c4cccc(-c5nncn5C(C)C)n4)C3=O)C2)cn1 (stereo not drawn) [Example 6, 1-[3-(1-Isopropylpyrazol-4-yl)cyclobutyl]-3-[6-(4-isopropyl-1,2,4-triazol-3-yl)-2-pyridyl]imidazolidin-2-one]",2.17 ± 0.45,100,27.1,102
"CC(C)n1cnnc1-c1cccc(N2CCN(C3CC(n4cnc(C5CC5)n4)C3)C2=O)n1 (stereo not drawn) [Example 4, 1-[3-(3-Cyclopropyl-1,2,4-triazol-1-yl)cyclobutyl]-3-[6-(4-isopropyl-1,2,4-triazol-3-yl)-2-pyridyl]imidazolidin-2-one]",2.56 ± 0.68,100,108,99
"Cc1ccc(C2CC(N3CCN(c4cccc(-c5nncn5C(C)C)n4)C3=O)C2)cn1 (single isomer, unassigned) [Example 8, 1-[6-(4-Isopropyl-1,2,4-triazol-3-yl)-2-pyridyl]-3-[3-(6-methyl-3-pyridyl)cyclobutyl]imidazolidin-2-one]",5.26 ± 0.72,100,235,97.5
"Cc1ncc(C2CC(N3CCN(c4cccc(-c5nncn5C(C)C)n4)C3=O)C2)cn1 (single isomer, unassigned) [Example 9, 1-(6-(4-Isopropyl-4H-1,2,4-triazol-3-yl)pyridin-2-yl)-3-(3-(2-methylpyrimidin-5-yl)cyclobutyl)imidazolidin-2-one]",6.21 ± 4.18,100,–,–
"CC(C)n1cnnc1-c1cccc(N2CCN(C3CC(n4cnc(C5CC5)c4)C3)C2=O)n1 (single isomer, unassigned) [Example 2, 1-[3-(4-Cyclopropylimidazol-1-yl)cyclobutyl]-3-[6-(4-isopropyl-1,2,4-triazol-3-yl)-2-pyridyl]imidazolidin-2-one]",1.47 ± 0.6,100,48.8 ± 19.1,105
"CC(C)n1cnnc1-c1cccc(N2CCN(C3CC(n4cnc(C(C)(C)C)c4)C3)C2=O)n1 (stereo not drawn) [Example 5, 1-(3-(4-(tert-Butyl)-1H-imidazol-1-yl)cyclobutyl)-3-(6-(4-isopropyl-4H-1,2,4-triazol-3-yl)pyridin-2-yl)imidazolidin-2-one]",1.84 ± 0.64,100,–,–
